Assay results taken from US6545040B1, “Method of lowering the blood pressure” (Janssen Pharmaceutica N.V., priority 1988, dated 2003).

System: spontaneous hypertensive rats
Test: Blood pressure and heart rate in conscious spontaneous hypertensive rats after intraperitoneal injection
Format: in vivo
Conditions: alone
Experimental: Adult spontaneous hypertensive rats (6 months of age) were anesthetized by ether inhalation. The femoral artery was dissected and cannulated, and the catheter was connected to a strain-gauge blood pressure transducer. When the animals were fully awake, they were restrained and the systolic and diastolic arterial blood pressure were continuously recorded. An observation period of at least 30 min preceded the administration of the test compound. All test compounds were dissolved in 20% polypropylene glycol and injected intraperitoneally. After administration of the test drug the systolic and diastolic arterial blood pressure and the heart rate were recorded during a period of 120 minutes.

[1] = 1.25 mpk i.p., treated vs untreated animals

With CC(C)NCC(O)COc1ccc(CC(N)=O)cc1 (stereo not drawn) [Atenolol, atenolol] as the molecule, how does the “Δ% change in diastolic blood pressure (DBP), average 120 min” value (“Δ% change in diastolic blood pressure” for short) (10 mpk i.p.) read?
Its value is “+5.9%”.

What about the “Δ% change in heart rate (HR), average 120 min” value (“Δ% change in heart rate (HR)” below) (10 mpk i.p.) of the same molecule?
Its value is −28.1%.

And the “Δ% change in systolic blood pressure (SBP), average 120 min” value (from here on “Δ% change in systolic blood pressure”) (10 mpk i.p.)?
Its value is −3.7%.

NNc1nncc2ccccc12 [Hydralazine, hydralazine] was tested. Which “Δ% change in diastolic blood pressure” value (0.63 mpk i.p.) did it give?
The value was −9.9%.

What about the “Δ% change in heart rate (HR)” value (0.63 mpk i.p.) of the same molecule?
Its value is −1.45%.

What about the “Δ% change in systolic blood pressure” value (0.63 mpk i.p.) of the same molecule?
The value was −7.5%.

COCCc1ccc(OCC(O)CNC(C)C)cc1 (stereo not drawn) [Metoprolol, metoprolol] was tested. Which “Δ% change in diastolic blood pressure” value (10 mpk i.p.) did it give?
The value was “+12.8%”.

And the “Δ% change in heart rate (HR)” value (10 mpk i.p.)?
Its value is −16.6%.

And the “Δ% change in systolic blood pressure” value (10 mpk i.p.)?
Its value is −1.2%.

Which “Δ% change in diastolic blood pressure” value (0.63 mpk i.p.) does the source give for Cc1ccc(N(CC2=NCCN2)c2cccc(O)c2)cc1 [Phentolamine, phentolamine] here?
Its value is −13.1%.

What about the “Δ% change in heart rate (HR)” value (0.63 mpk i.p.) of the same molecule?
The value was “+5.1%”.

What about the “Δ% change in systolic blood pressure” value (0.63 mpk i.p.) of the same molecule?
Its value is −9.85%.

How did the “Δ% change in diastolic blood pressure” value (0.01 mpk i.p.) turn out when COc1cc2nc(N3CCN(C(=O)c4ccco4)CC3)nc(N)c2cc1OC [Prazosin, prazosin] was run?
The value was −11.3%.

What about the “Δ% change in heart rate (HR)” value (0.01 mpk i.p.) of the same molecule?
The value was “+1.6%”.

And the “Δ% change in systolic blood pressure” value (0.01 mpk i.p.)?
Its value is −10.9%.

What does the source list for CC(C)NCC(O)COc1cccc2ccccc12 (stereo not drawn) [Propranolol, propranolol]?
Δ% change in diastolic blood pressure (DBP), average 120 min (5 mpk i.p.): +12.4%; Δ% change in heart rate (HR), average 120 min (5 mpk i.p.): −20.7%; Δ% change in systolic blood pressure (SBP), average 120 min (5 mpk i.p.): −2%

With O[C@@H](CNC[C@H](O)[C@H]1CCc2cc(F)ccc2O1)[C@@H]1CCc2cc(F)ccc2O1 [compound 1] as the molecule, how does the “Δ% change in diastolic blood pressure” value [1] read?
Its value is “+2.1%”.

What about the “Δ% change in heart rate (HR)” value [1] of the same molecule?
The value was 0.5%.

What about the “Δ% change in systolic blood pressure” value [1] of the same molecule?
The value was 0%.

And the “Δ% change in diastolic blood pressure” value (2.5 mpk i.p.)?
Its value is 0%.

And the “Δ% change in heart rate (HR)” value (2.5 mpk i.p.)?
The value was 0%.

And the “Δ% change in systolic blood pressure” value (2.5 mpk i.p.)?
Its value is −7%.
